Laboratory results taken from patent US4006251A, “Bactericidal and fungicidal composition containing thiocarbanyl sulfenamides” (The B. F. Goodrich Company, priority 1973, dated 1977).
≈ marks a conversion by molar mass, not a printed value. Where two headings read alike, the source gives them in different places.

Columns and labels:
[1] = system: various infectious organisms; test: Activity against organisms, overall (Agar Screening Test and/or Penicillin Button Assay Test); format: cell-based; details: organisms (a) to (d)
Text: A. Agar Screening Test for Activity.
B. Penicillin Button Assay Test.

[2] = Acute dermal toxicity test; format: in vivo, rabbits; details: rabbit, in vivo, topical or ocular; rabbits, dermal
Procedure: (§1) The thiocarbamylsulfenamide compounds were also evaluated as to their oral, dermal, and inhalation toxicity. The techniques employed are specified in Section 362.116 of the Regulations for the Enforcement of the Federal Insecticide, Fungicide, and Rodenticide Act, Interpretation 18 (Revised, Federal Register, April 4, 1969), or in the Federal Hazardous Substances Act. (Revised, Federal Register, September 17, 1964). Acute oral LD50, acute dermal LD50, and acute inhalation LC50 were determined; LD50 being the lethal dose for 50% of the test animals and LC50 being the lethal concentration for 50% of the test animals. Acute oral and acute inhalation tests were run using rats, while acute dermal testing was run using rabbits.
(§2) Two of the compounds evaluated for their activity against organisms (compounds A and G respectively in Example V) were tested for their toxicity following the procedure previously given in the specification.

rabbits = test: Acute dermal toxicity test; format: in vivo; details: classification according to federal regulations
Procedure: as §1, §2

[3] = Storage stability test, purity by titration before and after aging; format: physicochemical; details: for Percent Purity, after aging: air oven, closed bottles
Procedure: (§3) D. Storage Stability Tests.
Thiocarbamylsulfenamide compounds were tested for their stability upon storage at room temperature and after mild thermal aging. The principle test employed consisted of measuring the purity of a sample before and after aging. This was done by titrating a sample solution of the compound using potassium iodide, KI, and sodium thiosulfate, Na2 S2 O3. A 0.5 to 1.0 gram sample of the compound is weighed out and dissolved in 10 milliliters of chloroform. […] The calculations are: [formula] The value obtained is the percent by weight of the sample that is the desired thiocarbamylsulfenamide. The titration is run on the sample before and after aging. The change in purity of the compound indicates its decomposition upon storage.
(§4) This is important if the compounds are going to be used in disinfectant solutions, and stored and marked without a significant loss in activity against organisms. […] The compounds were aged in an air oven, while in closed bottles. The test methods used were previously described.

rats = test: Acute inhalation toxicity test; format: in vivo; details: classification according to federal regulations
Procedure: as §1, §2

[4] = Acute inhalation toxicity test; format: in vivo, rats; details: rat, in vivo, inhaled or intranasal; rats, inhalation
Procedure: as §1, §2

[5] = Storage stability test, melting point, appearance and odor before and after aging; format: physicochemical; details: for Melting point, after aging: air oven, closed bottles
Procedure: as §3
In addition to the titration test, other tests were run. The melting point of the compound was measured both before and after aging. Little or no change in melting point indicates good storage stability. Further, observations were made upon the appearance and odor of the compounds before and after aging.
as §4

Acute oral toxicity test = details: rat, in vivo, rats
Procedure: as §1, §2

[6] = system: various infectious organisms; details: U.S. Pat. No. 2,692,862; cited from earlier work
[7] = before aging, sample for 50 °C, 10 days
[8] = before aging, sample for 80 °C, 16 hrs.

## CCCCN(CCCC)C(=S)SN(C1CCCCC1)C1CCCCC1 [C, N,N-dibutylthiocarbamyl-N',N'-dicyclohexylsulfenamide]
[1]
  activity against organisms (in words): no activity

## CN(C)C(=S)SN(C1CCCCC1)C1CCCCC1 [Compound A, N,N-dimethylthiocarbamyl-N',N'-dicyclohexylsulfenamide]
[2]
  LD50: > 10000 mg/kg
rabbits
  toxicity by dermal absorption (in words): non-toxic
[3]; after aging, 50 °C, 10 days
  Percent Purity, after aging: 99%
[3]; after aging, 80 °C, 16 hrs.
  Percent Purity, after aging: 97%
[3]; [7]
  Percent Purity, before aging: 99%
[3]; [8]
  Percent Purity, before aging: 100%
rats
  toxicity by inhalation (in words): non-toxic
[4]
  LC50: 78 µg/mL (≈ 260 µM)
[1]
  activity against organisms (in words): good activity against organisms
[5]; 50 °C, 10 days
  Amine odor, after aging: slight
  Melting point, after aging: 85-87 °C
[5]; 80 °C, 16 hrs.
  Amine odor, after aging: slight
  Color, after aging: white
  Melting point, after aging: 83-85 °C
[5]; sample for 50 °C, 10 days
  Amine odor, before aging: slight
  Color, before aging: white
  Melting point, before aging: 85-87 °C
[5]; sample for 80 °C, 16 hrs.
  Amine odor, before aging: slight
  Color, before aging: white
  Melting point, before aging: 84-85 °C
Acute oral toxicity test
  LD50: 1100 mg/kg

## CCN(CC)C(=S)SN(C1CCCCC1)C1CCCCC1 [Compound B, N,N-diethylthiocarbamyl-N',N'-dicyclohexylsulfenamide]
[1]
  activity against organisms (in words): good activity

## S=C(SN1CCOCC1)N1CCOCC1 [Compound G, N-oxydiethylenethiocarbamyl-N'-oxydiethylenesulfenamide]
[2]
  LD50: > 10000 mg/kg
rabbits
  toxicity by dermal absorption (in words): non-toxic
[3]
  Percent Purity, before aging: 98
[3]; 16 h
  Percent Purity, after aging: 98
rats
  toxicity by inhalation (in words): non-toxic
[4]
  LC50: 164 µg/mL (≈ 660 µM)
[1]
  activity against organisms (in words): good activity against organisms
[5]; 80 °C, 16 hrs.
  Amine odor, after aging: slight
  Melting point, after aging: 135-139 °C
[5]; sample for 80 °C, 16 hrs.
  Amine odor, before aging: slight
  Color, before aging: white
  Melting point, before aging: 136-139 °C
Acute oral toxicity test
  LD50: 5100 mg/kg

## CN(C)C(=S)SNc1ccccc1 [Compound H, N,N-dimethylthiocarbamyl-N'-phenylsulfenamide]
[1]
  activity against organisms (in words): good activity

## CCCCCCCCCCCCCCCCCCCCN(CCCCCCCCCCCCCCCCCCCC)C(=S)SN(C1CCCCC1)C1CCCCC1 [D, N,N-dieicosylthiocarbamyl-N',N'-dicyclohexylsulfenamide]
[1]
  activity against organisms (in words): no activity

## S=C(SN(C1CCCCC1)C1CCCCC1)N1CCOCC1 [E, N-oxydiethylenethiocarbamyl-N',N'-dicyclohexylsulfenamide]
[1]
  activity against organisms (in words): almost no activity

## CCN(CC)C(=S)SNc1ccccc1 [I, N,N-diethylthiocarbamyl-N'-phenylsulfenamide]
[1]
  activity against organisms (in words): very little activity

## CN(C)SC(=S)N(C)C [J, N,N-dimethylthiocarbamyl-N',N'-dimethylsulfenamide, reference compound]
[3]; after aging, 50 °C, 10 days
  Percent Purity, after aging: 77%
[3]; [7]
  Percent Purity, before aging: 96%
[6]
  known activity against organisms (in words): known to have activity against organisms
[5]; 50 °C, 10 days
  Amine odor, after aging: strong
  Color, after aging: yellow
  Melting point, after aging: 34-39 °C
[5]; sample for 50 °C, 10 days
  Amine odor, before aging: slight
  Melting point, before aging: 49-51 °C

## CC(C)N(SC(=S)N(C)C)C(C)C [K, N,N-dimethylthiocarbamyl-N',N'-diisopropylsulfenamide, reference compound]
[3]; after aging, 80 °C, 16 hrs.
  Percent Purity, after aging: 89%
[3]; [8]
  Percent Purity, before aging: 93%
[6]
  known activity against organisms (in words): known to have activity against organisms
[5]; 80 °C, 16 hrs.
  Amine odor, after aging: strong
  Melting point, after aging: 53-54 °C
[5]; sample for 80 °C, 16 hrs.
  Amine odor, before aging: mild
  Color, before aging: white
  Melting point, before aging: 56-57 °C
